# Experimental data as given in PubChem BioAssay (NCI).
#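 Five compound concentrations were applied to cells in 96-well plates for 48 hours; endpoints were derived by simple linear interpolation of the resulting dose-response curve. At the GI50, growth is halved. The concentration for full growth arrest is given as TGI.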
# What was measured:
# Assay in all cases: NCI-60 cell line screen, 48 h
# [1] = system: HCT-116 colon
# [2] = system: MDA-MB-231 breast
# [3] = system: SW-620 colon
# [4] = system: OVCAR-8 ovarian
# [5] = system: MALME-3M melanoma
# [6] = system: SK-OV-3 ovarian
# [7] = system: HT29 colon
# [8] = system: OVCAR-4 ovarian
# [9] = system: DU-145 prostate
# [10] = system: HOP-62 NSCLC
# [11] = system: NCI/ADR-RES ovarian
# [12] = system: 786-0 renal
# [13] = system: NCI-H226 lung
# [14] = system: U251 CNS
# [15] = system: CCRF-CEM leukemia
# [16] = system: SK-MEL-2 melanoma
# [17] = system: KM12 colon
# [18] = system: LOX IMVI melanoma
# [19] = system: K-562 leukemia
# [20] = system: COLO 205 colon
# [21] = system: SF-268 CNS
# [22] = system: SK-MEL-5 melanoma
# [23] = system: TK-10 renal
# [24] = system: MOLT-4 leukemia
# [25] = system: CAKI-1 renal
# [26] = system: OVCAR-3 ovarian
# [27] = system: NCI-H23 lung
# [28] = system: RPMI-8226 leukemia
# [29] = system: HS 578T breast
# [30] = system: SK-MEL-28 melanoma
# [31] = system: MCF7 breast
# [32] = system: BT-549 breast
# [33] = system: SF-295 CNS
# [34] = system: SNB-75 CNS
# [35] = system: EKVX NSCLC
# [36] = system: T-47D breast
# [37] = system: A549 NSCLC
# [38] = system: SF-539 CNS
# [39] = system: UO-31 renal
# [40] = system: HCT-15 colon
# [41] = system: A498 renal
# [42] = system: RXF 393 renal
# [43] = system: NCI-H460 lung
# [44] = system: UACC-257 melanoma
# [45] = system: SN12C renal
# [46] = system: PC-3 prostate
# [47] = system: NCI-H522 lung
# [48] = system: MDA-MB-435
# [49] = system: UACC-62 melanoma
# [50] = system: HL-60(TB) leukemia
# [51] = system: OVCAR-5 ovarian
# [52] = system: M14 melanoma
# [53] = system: SNB-19 CNS
# [54] = system: ACHN renal
# [55] = system: SR leukemia
# [56] = system: IGROV1 ovarian
smiles,measurement,setting,value
Cc1ccc(/C(=N/NS(=O)(=O)c2cc(C)c(Cl)cc2Cl)Sc2cc(Cl)c(C)cc2S(N)(=O)=O)cc1,GI50,[1],> 100 µM
same,TGI,[1],> 100 µM
same,GI50,[2],> 100 µM
same,TGI,[2],> 100 µM
same,GI50,[3],> 100 µM
same,TGI,[3],> 100 µM
same,GI50,[4],> 100 µM
same,TGI,[4],> 100 µM
same,GI50,[5],63.6 µM
same,TGI,[5],> 100 µM
same,GI50,[6],> 100 µM
same,TGI,[6],> 100 µM
same,GI50,[7],> 100 µM
same,TGI,[7],> 100 µM
same,GI50,[8],> 100 µM
same,TGI,[8],> 100 µM
same,GI50,[9],49.7 µM
same,TGI,[9],> 100 µM
same,GI50,[10],> 100 µM
same,TGI,[10],> 100 µM
same,GI50,[11],> 100 µM
same,TGI,[11],> 100 µM
same,GI50,[12],> 100 µM
same,TGI,[12],> 100 µM
same,GI50,[13],> 100 µM
same,TGI,[13],> 100 µM
same,GI50,[14],> 100 µM
same,TGI,[14],> 100 µM
same,GI50,[15],> 100 µM
same,TGI,[15],> 100 µM
same,GI50,[16],> 100 µM
same,TGI,[16],> 100 µM
same,GI50,[17],> 100 µM
same,TGI,[17],> 100 µM
same,GI50,[18],> 100 µM
same,TGI,[18],> 100 µM
same,GI50,[19],70.1 µM
same,TGI,[19],> 100 µM
same,GI50,[20],> 100 µM
same,TGI,[20],> 100 µM
same,GI50,[21],> 100 µM
same,TGI,[21],> 100 µM
same,GI50,[22],> 100 µM
same,TGI,[22],> 100 µM
same,GI50,[23],> 100 µM
same,TGI,[23],> 100 µM
same,GI50,[24],17.9 µM
same,TGI,[24],> 100 µM
same,GI50,[25],> 100 µM
same,TGI,[25],> 100 µM
same,GI50,[26],59 µM
same,TGI,[26],> 100 µM
same,GI50,[27],> 100 µM
same,TGI,[27],> 100 µM
same,GI50,[28],51.3 µM
same,TGI,[28],> 100 µM
same,GI50,[29],> 100 µM
same,TGI,[29],> 100 µM
same,GI50,[30],> 100 µM
same,TGI,[30],> 100 µM
same,GI50,[31],> 100 µM
same,TGI,[31],> 100 µM
same,GI50,[32],83.5 µM
same,TGI,[32],> 100 µM
same,GI50,[33],> 100 µM
same,TGI,[33],> 100 µM
same,GI50,[34],> 100 µM
same,TGI,[34],> 100 µM
same,GI50,[35],70.9 µM
same,TGI,[35],> 100 µM
same,GI50,[36],> 100 µM
same,TGI,[36],> 100 µM
same,GI50,[37],> 100 µM
same,TGI,[37],> 100 µM
same,GI50,[38],> 100 µM
same,TGI,[38],> 100 µM
same,GI50,[39],> 100 µM
same,TGI,[39],> 100 µM
same,GI50,[40],> 100 µM
same,TGI,[40],> 100 µM
same,GI50,[41],> 100 µM
same,TGI,[41],> 100 µM
same,GI50,[42],90.9 µM
same,TGI,[42],> 100 µM
same,GI50,[43],> 100 µM
same,TGI,[43],> 100 µM
same,GI50,[44],> 100 µM
same,TGI,[44],> 100 µM
same,GI50,[45],> 100 µM
same,TGI,[45],> 100 µM
same,GI50,[46],> 100 µM
same,TGI,[46],> 100 µM
same,GI50,[47],> 100 µM
same,TGI,[47],> 100 µM
same,GI50,[48],> 100 µM
same,TGI,[48],> 100 µM
same,GI50,[49],> 100 µM
same,TGI,[49],> 100 µM
same,GI50,[50],70 µM
same,TGI,[50],> 100 µM
same,GI50,[51],> 100 µM
same,TGI,[51],> 100 µM
same,GI50,[52],> 100 µM
same,TGI,[52],> 100 µM
same,GI50,[53],> 100 µM
same,TGI,[53],> 100 µM
same,GI50,[54],86.4 µM
same,TGI,[54],> 100 µM
same,GI50,[55],41 µM
same,TGI,[55],> 100 µM
same,GI50,[56],> 100 µM
same,TGI,[56],> 100 µM
